# Key:
# [1] = target: erythrocyte chloride channels; experiment: Cl- conductance (GCl) from conductive netfluxes of Cl- and membrane potentials in suspensions of normal erythrocytes; assay type: cell-based, Human; conditions: suspension of normal erythrocytes; for Kd: read-out: KD-value for block of GCl
# Description: (§1) The compounds of the present invention are potent blockers of chloride channels in normal as well as sickle cell erythrocytes.
# (§2) All dose-response experiments were therefore performed by concomitant measurements of conductive neffluxes of Cl^− (JCl) and membrane potentials (Vm) in suspensions of erythrocytes (Bennekou, P. and Christophersen, P. (1986), Flux ratio of Valinomycin—Mediated K^+ Fluxes across the Human Red Cell Membrane in the presence of the Protronophore CCCP. J. Membrane Biol. 93, 221-227. ). The membrane Cl^− conductances (GCl) were calculated by the following equation (Hodgkin, A. L. and Huxley, A. F. (1952) The components of membrane conductance in the giant axon of Loligo. J. Physiol. Lond. 116, 449-472): [formula]
# (§3) where F is the Faraday constant, ECl is the Nernst potential for the Cl-ion.
# mice = conditions: mouse, in vivo
# Description: (§4) 3-Trifluoromethylphenyl-2-carboxyphenyl urea is non-toxic to mice and rats at concentrations up to 250 mg/kg i.p. and i.v.
# rats = conditions: rat, in vivo
# Description: as §4
# sickle erythrocytes = experiment: Deoxygenation induced permeability increase of sickle cells, extracellular K+-concentration vs time; assay type: cell-based; conditions: 10 μM
# Description: (§5) Deoxygenation induced permeability increases of sickle cells were estimated by measuring the extracellular K^+-concentration vs time. […] The K^+ flux from oxygenated sickle erythrocytes was 2-3 times higher than from normal erythrocytes and these fluxes was accelerated 4-8 times upon deoxygenation.
# [2] = test system: erythrocyte chloride channels (homozygoteous sickle cell erythrocytes); experiment: Cl- conductance (GCl) in sickle cell erythrocytes; assay type: cell-based, Human; conditions: oxygenated as well as deoxygenated homozygoteous sickle cell erythrocytes
# Description: as §1, §2, §3
# erythrocytes = experiment: Valinomycin induced cell volume loss, relative volume of packed cells; assay type: cell-based; conditions: valinomycin for 5 min; volume loss 26% without compound
# Description: Inducing a massive water and salt loss (KCl) by addition the K^+-ionophore valinomycin to the suspension for 5 min reduced the cell volume by 26%.
# Normal erythrocytes = experiment: K+-flux from normal erythrocytes, extracellular K+-concentration vs time; assay type: cell-based; conditions: 10 μM
# Description: as §5
# bone resorbtion = conditions: in vitro; cited from earlier work
# proton pump = conditions: cited from earlier work
# bone degration = conditions: growing yound rats; cited from earlier work
compound,measurement,setting,value
O=C(Nc1cccc(C(F)(F)F)c1)Nc1ccc(Br)cc1-c1nnn[nH]1 [3-Trifluoromethylphenyl-4-bromo-2-(5-tetrazolyl)phenyl Urea],Kd,[1],1900 nM
O=C(Nc1cccc(C(F)(F)F)c1)Nc1ccccc1C(=O)O [N-3-Trifluoromethylphenyl-N′-2-carboxyphenyl Urea],non-toxic dose,mice,up to 250 mg/kg
same,non-toxic dose,rats,up to 250 mg/kg
same,basal K+-flux from sickle erythrocytes,sickle erythrocytes,normalised
same,deoxygenation induced K+ flux component,sickle erythrocytes; deoxygenated sickle erythrocytes,nearly abolished
same,block of GCl compared with normal erythrocytes,[2],equipotently blocked
same,block of GCl,[1],more than 95%
same,Kd,[1],1300 nM
same,cell volume loss in presence of compound,erythrocytes,7%
same,effect on K+-fluxes of normal erythrocytes,Normal erythrocytes,insensitive
"CN(C)S(=O)(=O)c1ccc(-c2ccc(NC(=O)Nc3cccc(C(F)(F)F)c3)c(-c3nnn[nH]3)c2)cc1 [N-(3-Trifluoromethylphenyl)-N′-(4′-(N,N-dimethylsulfamoyl)-2-(1-H-tetrazol-5-yl)-4-biphenyl) urea]",melting point,,258 to 260 °C
same,Kd,[1],300 nM
CC(=O)Nc1nnc(S(N)(=O)=O)s1 [acetacolamide],"effect on bone resorbtion, pit formation",bone resorbtion,effective
CO/C1=C\C(C)=C\[C@@H](C)[C@@H](O)[C@@H](C)C/C(C)=C/C=C/[C@H](OC)[C@@H]([C@@H](C)[C@@H](O)[C@H](C)[C@@]2(O)C[C@@H](O)[C@H](C)[C@@H](C(C)C)O2)OC1=O [bafilomycin A1],block of the proton pump,proton pump,"extremely potent, reversible inhibitor"
same,"effect on bone resorbtion, pit formation",bone resorbtion,completely eliminates
same,effect on bone degration,bone degration,depresses
COc1ccc2[nH]c([S+]([O-])Cc3ncc(C)c(OC)c3C)nc2c1 (centres unmarked) [omeprazol],block of the proton pump,proton pump,ineffective
